Results on 22 compounds are retold here after US8420657B2 (Novartis AG, priority 2008, dated 2013).

Usually IC50 stands for the concentration that inhibits the measured activity by half.

One assay has as its target T1, GST-JAK2(808-1132) (Homo sapiens, UniProt O60674).
T1 construct: GST-JAK2(808-1132); purchased Invitrogen (Carlsbad, USA) #4288
The experiment in a line: JAK2 kinase assay (Caliper mobility shift, LabChip 3000). The class given is biochemical. The method, boiled down: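 Eight-point compound series (final 10–0.003 μM) tested on purchased GST-JAK2 kinase domain (808-1132). Peptide FITC-JAK3tide plus ATP reacted 60 min, 30 °C, then quenched with EDTA; turnover from charge-based separation of substrate and product.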

Assay [1] concerns JAK1/JAK2-dependent nuclear translocation of STAT1-GFP in HT1080 fibrosarcoma cells. The experiment in a line: STAT1 nuclear translocation assay (Cellomics), IFN-γ stimulated HT1080 STAT1-GFP cells. The class given is cell-based. The following applies: Homo sapiens, HT-1080, STAT1 translocation pathway. The method, boiled down: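 IC50 derived from percent nuclear STAT1-GFP translocation, computed from nuclear minus cytoplasmic GFP intensity against untreated baseline and DMSO-stimulated control. Stable HT1080 STAT1-GFP cells received compound (0.003–10 μM, 0.1% DMSO) 30 min ahead of a 2 h 100 ng/ml IFN-γ stimulus, then fixation and Hoechst nuclear masking.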

In assay [2] the test system is JAK2-dependent nuclear translocation of STAT5-GFP in U-2 OS osteosarcoma cells. Nature of the assay: STAT5 nuclear translocation assay (Cellomics), rhEpo stimulated U-2 OS STAT5-GFP cells. The class given is cell-based. The following applies: STAT5 translocation pathway. In outline:
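U-2 OS cells stably expressing STAT5a-GFP and EpoR pre-treated with compound (final 10 μM to 0.003 μM, 0.1% DMSO) for 30 min at 37° C., then stimulated 1 h with 5 U/ml rhEpo. Nuclear-cytoplasmic GFP differential quantified by automated imaging (≥1000 cells/well, Hoechst nuclear mask). IC50 from % translocation normalized to untreated and DMSO-stimulated controls.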

T1 sequence (O60674 808-1132): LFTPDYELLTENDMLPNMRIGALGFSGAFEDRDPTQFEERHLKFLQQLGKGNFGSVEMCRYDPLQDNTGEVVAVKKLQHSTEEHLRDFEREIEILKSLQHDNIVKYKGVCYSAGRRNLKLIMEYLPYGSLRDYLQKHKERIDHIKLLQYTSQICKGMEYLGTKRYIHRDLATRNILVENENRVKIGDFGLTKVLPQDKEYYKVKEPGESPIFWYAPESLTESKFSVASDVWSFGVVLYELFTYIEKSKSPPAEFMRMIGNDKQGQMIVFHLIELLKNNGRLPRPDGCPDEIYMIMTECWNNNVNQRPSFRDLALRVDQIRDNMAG

`C[C@@H]1CN(Cc2c(F)cc(-n3ccc4cnc(Nc5ccc(N6CCN(C)CC6)nc5)nc43)cc2F)C[C@H](C)O1` [Example 447, {7-[4-(cis-2,6-dimethyl-morpholin-4-ylmethyl)-3,5-difluoro-phenyl]-7H-pyrrolo[2,3-d]pyrimidin-2-yl}-[6-(4-methyl-piperazin-1-yl)-pyridin-3-yl]-amine]: the IC50 came out at 9.6 nM at GST-JAK2(808-1132); 105 nM in assay [1]; 11.8 nM in assay [2] (Homo sapiens, U2OS).
As for `Cc1ccc(Nc2ncc3ccn(-c4ccc(C(=O)N5CCOCC5)c(F)c4)c3n2)cc1CN1CCOC2(COC2)C1` [Example 359, (4-{2-[3-(2,5-Dioxa-8-aza-spiro[3,5]non-8-ylmethyl)-4-methyl-phenylamino]-pyrrolo[2,3-d]pyrimidin-7-yl}-2-fluoro-phenyl)-morpholin-4-yl-methanone], the IC50 at GST-JAK2(808-1132) amounted to 7.4 nM; in assay [2] (Homo sapiens, U2OS) it was 135 nM.
In the case of `CN1CCN(Cc2cc(Nc3ncc4ccn(-c5cc(F)c(CN6CCOCC6)c(F)c5)c4n3)ccc2Cl)CC1` [Example 494, [4-Chloro-3-(4-methyl-piperazin-1-yl methyl)-phenyl]-[7-(3,5-difluoro-4-morpholin-4-ylmethyl-phenyl)-7H-pyrrolo[2,3-d]pyrimidin-2-yl]-amine], the IC50 on GST-JAK2(808-1132) was ≤ 3 nM; in assay [2] (Homo sapiens, U2OS), 394 nM.
As to `Fc1cc(-n2ccc3cnc(Nc4ccc(C5CCNCC5)nc4)nc32)cc(F)c1CN1CCOCC1` [Example 501, [7-(3,5-Difluoro-4-morpholin-4-ylmethyl-phenyl)-7H-pyrrolo[2,3-d]pyrimidin-2-yl]-(1,2′,3′,4′,5′,6′-hexahydro-[2,4′]bipyridinyl-5-yl)-amine], the IC50 on GST-JAK2(808-1132) was ≤ 3 nM; in assay [2] (Homo sapiens, U2OS), 38 nM.
For `Fc1cc(-n2ccc3cnc(Nc4ccc([C@H]5COCCN5)cc4)nc32)cc(F)c1CN1CCOCC1` [Example 511, [7-(3,5-Difluoro-4-morpholin-4-ylmethyl-phenyl)-7H-pyrrolo[2,3-d]pyrimidin-2-yl]-((S)-4-morpholin-3-yl-phenyl)-amine] the same measures were ≤ 3 nM and 3.9 nM.
Consider `Cc1ccc(Nc2ncc3ccn(-c4ccc(S(=O)(=O)NC(C)(C)C)cc4)c3n2)cc1CN1CCNCC1` [Example 376, N-tert-Butyl-4-[2-(4-methyl-3-piperazin-1-ylmethyl-phenylamino)-pyrrolo[2,3-d]pyrimidin-7-yl]-benzenesulfonamide], for which the IC50 at GST-JAK2(808-1132) was ≤ 3 nM; in assay [2] (Homo sapiens, U2OS) it was 67 nM.
For `Cc1cc(Nc2ncc3ccn(-c4cc(F)c(CN5CCOCC5)c(F)c4)c3n2)cc(C)c1OCCN1CCOCC1` [Example 433, [7-(3,5-Difluoro-4-morpholin-4-ylmethyl-phenyl)-7H-pyrrolo[2,3-d]pyrimidin-2-yl]-[3,5-dimethyl-4-(2-morpholin-4-yl-ethoxy)-phenyl]-amine] the same measures were ≤ 3 nM and 6.3 nM.
In the same order, the values of `COC1CCN(Cc2cc(Nc3ncc4ccn(-c5cc(F)c(CN6CCOCC6)c(F)c5)c4n3)ccn2)C1` (racemic) [Example 426, [7-(3,5-Difluoro-4-morpholin-4-ylmethyl-phenyl)-7H-pyrrolo[2,3-d]pyrimidin-2-yl]-[2-(3-methoxy-pyrrolidin-1-ylmethyl)-pyridin-4-yl]-amine] are ≤ 3 nM and 18.3 nM.
As to `CN1CCN(Cc2cc(Nc3ncc4ccn(-c5ccc(C(=O)N6CCS(=O)(=O)CC6)c(F)c5)c4n3)ccn2)CC1` [Example 406, (1,1-Dioxido-thiomorpholin-4-yl)-(2-fluoro-4-{2-[2-(4-methyl-piperazin-1-ylmethyl)-pyridin-4-ylamino]-pyrrolo[2,3-d]pyrimidin-7-yl}-phenyl)-methanone], the IC50 on GST-JAK2(808-1132) is 4 nM; in assay [2] (Homo sapiens, U2OS) it was > 4000 nM.
As to `Cc1ccc(Nc2ncc3ccn(-c4cc(F)c(CN5CCS(=O)(=O)CC5)c(F)c4)c3n2)cc1CN1CC(O)C1` [Example 423, 1-(5-{7-[4-(1,1-Dioxido-thiomorpholin-4-ylmethyl)-3,5-difluoro-phenyl]-7H-pyrrolo[2,3-d]pyrimidin-2-ylamino}-2-methyl-benzyl)-azetidin-3-ol], the 50% inhibitory concentration (IC50) at GST-JAK2(808-1132) was ≤ 3 nM; in assay [2] (Homo sapiens, U2OS), 5.9 nM.
Regarding `O=C(c1cccc(Nc2ncc3ccn(-c4cc(F)c(CN5CCOCC5)c(F)c4)c3n2)c1)N1CCN(C2CC2)CC1` [Example 459, (4-Cyclopropyl-piperazin-1-yl)-{3-[7-(3,5-difluoro-4-morpholin-4-ylmethyl-phenyl)-7H-pyrrolo[2,3-d]pyrimidin-2-ylamino]-phenyl}-methanone], the IC50 on GST-JAK2(808-1132) amounted to 5.1 nM; in assay [2] (Homo sapiens, U2OS), 104 nM.
As for `OC1CCN(c2ccc(Nc3ncc4ccn(-c5cc(F)c(CN6CCOCC6)c(F)c5)c4n3)cn2)C1` (racemic) [Example 347, 1-{5-[7-(3,5-Difluoro-4-morpholin-4-ylmethyl-phenyl)-7H-pyrrolo[2,3-d]pyrimidin-2-ylamino]-pyridin-2-yl}-pyrrolidin-3-ol], the IC50 on GST-JAK2(808-1132) was ≤ 3 nM; in assay [2] (Homo sapiens, U2OS), 13.3 nM.
As for `Cc1cc(Nc2ncc3ccn(-c4cc(F)c(CN5CCOCC5=O)c(F)c4)c3n2)cnc1N1C[C@@H](C)N[C@@H](C)C1` [Example 483, 4-(4-{2-[6-(cis-3,5-Dimethyl-piperazin-1-yl)-5-methyl-pyridin-3-ylamino]-pyrrolo[2,3-d]pyrimidin-7-yl}-2,6-difluoro-benzyl)-morpholin-3-one], the IC50 at GST-JAK2(808-1132) is ≤ 3 nM; in assay [2] (Homo sapiens, U2OS), 12.3 nM.
`Fc1cc(-n2ccc3cnc(Nc4ccc(CN5CCC(F)(F)C5)cc4)nc32)cc(F)c1CN1CCOCC1` [Example 471, [7-(3,5-Difluoro-4-morpholin-4-ylmethyl-phenyl)-7H-pyrrolo[2,3-d]pyrimidin-2-yl]-[4-(3,3-difluoro-pyrrolidin-1-ylmethyl)-phenyl]-amine]: the IC50 at GST-JAK2(808-1132) was 3.5 nM; in assay [2] (Homo sapiens, U2OS) it was 31.5 nM.
With `CN1CCN(Cc2ccc(Nc3ncc4ccn(-c5cc(F)c(CN6CCOCC6)c(F)c5)c4n3)cn2)CC1=O` [Example 505, 4-{5-[7-(3,5-Difluoro-4-morpholin-4-methyl-phenyl)-7H-pyrrolo[2,3-d]pyrimidin-2-ylamino]-pyridin-2-ylmethyl}-1-methyl-piperazin-2-one], the half-maximal inhibitory concentration (IC50) at GST-JAK2(808-1132) was 4.1 nM; in assay [2] (Homo sapiens, U2OS), 60 nM.
Consider `O=C(c1ccc(-n2ccc3cnc(Nc4ccc(CC5CCNCC5)cc4)nc32)cc1F)N1CCOCC1` [Example 381, {2-Fluoro-4-[2-(4-piperidin-4-ylmethyl-phenylamino)-pyrrolo[2,3-d]pyrimidin-7-yl]-phenyl}-morpholin-4-yl-methanone], for which the IC50 on GST-JAK2(808-1132) is ≤ 3 nM; in assay [2] (Homo sapiens, U2OS), 43 nM.
Take `Fc1cc(-n2ccc3cnc(Nc4ccc(CC5CCNCC5)cc4)nc32)cc(F)c1CN1CCOCC1` [Example 383, [7-(3,5-Difluoro-4-morpholin-4-ylmethyl-phenyl)-7H-pyrrolo[2,3-d]pyrimidin-2-yl]-(4-piperidin-4-ylmethyl-phenyl)-amine]: the IC50 on GST-JAK2(808-1132) worked out at 5.1 nM; in assay [2] (Homo sapiens, U2OS), 6.1 nM.
Consider `Cc1ccc(Nc2ncc3ccn(-c4cc(F)c(CN5CCOCC5)c(F)c4)c3n2)cc1CN1C[C@H](C)NC[C@H]1C` (racemic) [Example 378, [7-(3,5-Difluoro-4-morpholin-4-ylmethyl-phenyl)-7H-pyrrolo[2,3-d]pyrimidin-2-yl]-[3-((2R,5S)-2,5-dimethyl-piperazin-1-ylmethyl)-4-methyl-phenyl]-amine], for which the IC50 is 13 nM at GST-JAK2(808-1132) and 45 nM in assay [2] (Homo sapiens, U2OS).
As to “[6-Azetidin-3-yloxy)-pyridin-3-yl]-[7-(3,5-difluoro-4-morpholin-4-ylmethyl-phenyl)-7H-pyrrolo[2,3-d]pyrimidin-2-yl]-amine [Example 514]”, the IC50 amounted to 25 nM at GST-JAK2(808-1132) and 1320 nM in assay [2].
For `Cc1ccc(Nc2ncc3ccn(-c4cc(F)c(CN5CCOCC5)c(F)c4)c3n2)cc1CN1CCNCC1=O` [Example 399, 1-{5-[7-(3,5-Difluoro-4-morpholin-4-ylmethyl-phenyl)-7H-pyrrolo[2,3-d]pyrimidin-2-ylamino]-2-methyl-benzyl}-piperazin-2-one], the IC50 is ≤ 3 nM at GST-JAK2(808-1132) and 6.6 nM in assay [2] (Homo sapiens, U2OS).
As to `CC(C)S(=O)(=O)Nc1ccc(-n2ccc3cnc(Nc4ccc(N5C[C@@H](C)N[C@@H](C)C5)nc4)nc32)cc1` [Example 375, Propane-2-sulfonic acid (4-{2-[6-(cis-3,5-dimethyl-piperazin-1-yl)-pyridin-3-ylamino]-pyrrolo[2,3-d]pyrimidin-7-yl}-phenyl)-amide], the IC50 on GST-JAK2(808-1132) was found to be 6.5 nM; in assay [2] (Homo sapiens, U2OS), 7.7 nM.
As for `CN1CCN(Cc2cc(Nc3ncc4ccn(-c5cc(F)c(CN6CCOCC6)c(F)c5)c4n3)ccn2)CC1=O` [Example 397, 4-{4-[7-(3,5-Difluoro-4-morpholin-4-ylmethyl-phenyl)-7H-pyrrolo[2,3-d]pyrimidin-2-ylamino]-pyridin-2-ylmethyl}-1-methyl-piperazin-2-one], the IC50 at GST-JAK2(808-1132) is ≤ 3 nM; in assay [2] (Homo sapiens, U2OS), 13 nM.
